Reference: patent publication US9487566B2, “Method for purifying protein” (KYOWA HAKKO KIRIN CO., LTD, priority 2011, dated 2016)

Tests used:
protease = conditions: glycine 0.5 mol/L or arginine 0.4 mol/L final, 25° C. for 6 days
neuraminidase [1] = experiment: Neuraminidase activity after addition of amino acids to Antithrombin eluate (enzyme assay); format: biochemical, CHO cell
Protocol: The Antithrombin concentration and the neuraminidase activity in the washing fraction before elution and in a particular range of eluate were measured by reversed-phase HPLC method [J. Chromatography B, 662, 209 (1994)] and enzyme assay [Glycobiology, 3, 455 (1993)], respectively.
Arginine hydrochloride or glycine of a final concentration of 0 to 500 mmol/L was added to the aqueous solution containing Antithrombin obtained in the elution process of Comparative Example 1. The neuraminidase activity in each solution was measured in the same manner as in Example 1.

neuraminidase [2] = experiment: Capillary electrophoresis of Erythropoietin from culture fluid held with amino acids (bound sialic acids); format: biochemical; conditions: 1 mol/L amino acid solution mixed in equivalent amount, 25° C. for 7 days, compared with purified water / initiation
Protocol: Purified water, 1 mol/L alanine solution, 1 mol/L arginine solution, or 1 mol/L glycine solution was mixed with the culture fluid containing Erythropoietin in an equivalent amount, respectively and then held at 25° C. for 7 days. Thereafter, Erythropoietin was purified using an anti-Erythropoietin antibody-immobilized affinity chromatography column, and the number of sialic acids binding to Erythropoietin was measured by capillary electrophoresis [Biol. Pharm. Bull. 33(9) 1596-1599 (2010)].

[3] = system: Neuraminidase (manufactured by Nacalai Tesque); conditions: final concentration 1.0 mol/L, neuraminidase 0.0005 U/mL, 37° C. for 3 hours
Protocol: As a control group, purified water was added in the same amount as the neuraminidase. Glycine was added at a final concentration of 1.0 mol/L, or purified water as a control, and held at 37° C. for 3 hours.

[4] = Storage stability of purified Protein S by SDS-PAGE; format: physicochemical; conditions: held at 37° C. for 3 days vs frozen at −20° C.
Protocol: The Protein S-Example 16 and the Protein S-Comparative Example 3 were held at 37° C. for 3 days, or they were also frozen at −20° C., respectively.

Molecule	conversion of Protein S into the cleaved form (protease)	relative neuraminidase activity (activity at 0 mmol/L amino acid regarded as 1.0) (neuraminidase [1]; addition of 100 mmol/L)	number of sialic acids binding to Erythropoietin after holding (neuraminidase [2])	change on storage (cleaved form, SDS-PAGE) [4]	further results
N=C(N)NCCC[C@H](N)C(=O)O [arginine]	conversion of Protein S into the cleaved form was inhibited	about 0.2	the number of bound sialic acids was equivalent		relative neuraminidase activity (activity at 0 mmol/L amino acid regarded as 1.0) (neuraminidase [1]; addition of 200 mmol/L or more, below the detection limit): 0
NCC(=O)O [glycine]	conversion of Protein S into the cleaved form was inhibited	about 0.2	the number of bound sialic acids was maintained		electrophoretic profile of Protein S (basic shift by loss of sialic acid) [3]: major bands were found in a more acidic region than the band of purified water-added one; relative neuraminidase activity (activity at 0 mmol/L amino acid regarded as 1.0) (neuraminidase [1]; addition of 300 mmol/L or more, below the detection limit): 0
Protein S-Example 16: Protein S obtained by the method described in Example 16 (purified using the mixed mode carrier)				no change	
C[C@H](N)C(=O)O [alanine]			the number of bound sialic acids was maintained		
Protein S-Comparative Example 3: Protein S obtained by the method described in Comparative Example 3 (purified without using the mixed mode carrier)				the cleaved form was increased	
